Measured values as given in patent publication US20150159169A1, “Plants Tolerant to HPPD Inhibitor Herbicides” (Bayer CropScience AG, priority 2009, published 2015).
Where two headings read alike, the source gives them in different places. One block for each compound: values may come before it.

How the values were obtained:
[1] = test system: tobacco plants containing FMP27t-h, PAT and 2mEPSPS (pFCO116); test: Glasshouse response of three-tolerance-gene tobacco to herbicides, injury classes; format: in vivo, Nicotiana tobacum; details: 9 DAT
Description: A binary vector for tobacco transformation is, for example, constructed with the CaMV35 promoter driving the expression of the gene FMP27t-h (SEQ ID No. 15), with a codon usage optimized for the expression in dicotyledoneous plants and at its 5′extremity was added a sequence coding for an OTP, and further upstream a sequence TEV (Tobacco etch virus) to improve the stability of the mRNA in plants followed by the CaMV35S terminator. The nucleotide sequence of the gene FMP27t-h is given in SEQ ID No. 15. Additionally, the transformation vector also contains a PAT gene cassette in which the gene is driven by a CaVM35S promoter and followed by a CaMV35S terminator for glufosinate based selection during the transformation process and a 2mEPSPS gene cassette in which the gene is driven by an histone promoter from Arabidopsis to confer tolerance to the herbicide glyphosate to the transformed plants (see FIG. 3 H). The binary vector was called pFCO116. The above vector was used to transform leaf disc obtained from Nicotiana tobacum plants, according to Example 3.
Transgenic tobacco plants were transferred to the greenhouse and treated with glyphosate at a rate of 1121 g AI/ha. Seeds were produced from such tolerant tobacco plants and harvested. These seeds were put on soil to germinate in the glasshouse. Three to four weeks later, 50 plantlets per event were transferred to single pots. Two weeks later, plants of a size 4-6 cm were sprayed either with
[…] […] Non-transgenic tobacco plants were completely killed by treatment using one or more of the above herbicides.

[2] = target: Kordia algicida HPPD "SEQ ID No. 5" (Kordia algicida, UniProt A9DQF2); test: biochemical; details: for inhibition at 5 µM: read-out: percentage of inhibition compared to the activity in absence of the inhibitor
[3] = target: Kordia algicida HPPD "SEQ ID No. 5" (FMP27e) (Kordia algicida, UniProt A9DQF2); test: HPLC assay of HPPD in vitro kinetic properties; format: biochemical
Description: (§1) Km, Vmax, and kcat values for different HPPD enzyme preparations and Ki, K1=Kon, and K−1=Koff for different HPPD inhibitors were determined using a HPLC assay for measurements of HPPD activity. […] All assays were started by the addition of HPPD enzyme to the assay mixture and stopped at a series of times between 0 and 240 s by addition of 200 μl of the reaction mixture to reaction assay tubes containing 20 μl 10% perchloric acid. Precipitated protein was pelleted by a 5 minute centrifugation at 10,000 g.
(§2) For Km and Vmax value determinations the initial rates of the HPPD reaction at different substrate concentrations were determined from plots of HGA formed versus time and fitted to the Michaelis-Menten equation for unireactant enzymes using the ID Business Solutions Ltd. (idbs.com) XLfit software suite.

[4] = target: T1, Arabidopsis thaliana HPPD "SEQ ID No. 10" (Arabidopsis thaliana, UniProt P93836); test: HPLC assay of HPPD in vitro kinetic properties; format: biochemical; details: substrate HPP varied 10-400 μM; enzyme SEQ ID No. 10
T1 construct: made in house; host or cells: E. coli K-12 BL21 (pQE30-AtHPPD)
T1 sequence (P93836 with tags, fused parts or gaps): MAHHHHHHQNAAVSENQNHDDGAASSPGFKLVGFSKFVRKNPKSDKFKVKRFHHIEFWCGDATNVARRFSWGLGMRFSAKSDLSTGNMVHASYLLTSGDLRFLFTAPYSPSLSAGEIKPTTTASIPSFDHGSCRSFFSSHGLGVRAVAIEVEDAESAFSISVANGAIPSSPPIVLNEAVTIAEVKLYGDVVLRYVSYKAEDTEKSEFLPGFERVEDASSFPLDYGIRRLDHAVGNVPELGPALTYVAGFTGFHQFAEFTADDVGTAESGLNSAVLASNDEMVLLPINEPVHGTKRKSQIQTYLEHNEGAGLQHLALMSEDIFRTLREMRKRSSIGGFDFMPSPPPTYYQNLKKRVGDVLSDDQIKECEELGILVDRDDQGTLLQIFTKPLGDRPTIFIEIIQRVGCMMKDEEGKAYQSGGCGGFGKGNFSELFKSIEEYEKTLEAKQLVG
Description: as §1, §2

[5] = target: T1, Arabidopsis thaliana HPPD "SEQ ID No. 10"; test: HPPD activity in presence of HPPD inhibitors (pI50, % inhibition); format: biochemical
[6] = test system: tobacco leaf disks containing SEQ ID No. 11 (Arabidopsis HPPD); test: Leaf disk regeneration on HPPD inhibitor media; format: cell-based, Nicotiana tabacum; details: 6 weeks
Description: (§3) At the end of the experiments the level of regeneration was evaluated as followed:
(§4) “−” means that the leaf disks looked the same as leaf disk from wild type tobacco plants on media supplemented with the inhibitor mentioned above.
(§5) “++++” means that the leaf disks looked like the leaf disks from the wild type tobacco plants on media without inhibitor.
(§6) “+”, “++”, and “+++” indicate regenerated leaf disks were heavily (+), medium (++) and less (+++) affected by the presence of the inhibitors.

[7] = test system: tobacco leaf disks containing SEQ ID No. 7 (Kordia algicida HPPD); test: Leaf disk regeneration on HPPD inhibitor media; format: cell-based, Nicotiana tabacum; details: 6 weeks
Description: as §3, §4, §5, §6

[8] = test system: T1 tobacco plants carrying FMP27e; test: Glasshouse response to bicyclopyrone, injury classes; format: in vivo, Nicotiana tabacum; details: 100 g AI/ha, 7 DAT
Excerpt: (§7) Seeds of wild type tobacco plants and T1 tobacco plants carrying the gene from Kordia algicida FMP27e coding for HPPD were sown on MS media (Murashige and Skoog 1964) supplemented with […] kanamycin. After 4 weeks, rooted green plantlets were transferred to soil and grown for 3 weeks in the glasshouse as described above then sprayed with a mixture containing bicyclopyrone (100 g AI/ha), ammonium sulfate and methyl ester raps oil. The plants were classified in two categories based on the phenotype developed in response to the herbicide seven days after the treatment. […] In this case, only plants containing at least one T-DNA were exposed to the herbicidal treatment.

wild type tobacco plants = test: as above; format: in vivo, Nicotiana tabacum; details: 100 g AI/ha, 7 DAT; WT
Excerpt: as §7

[9] = 5.0 × 10^−6M inhibitor, enzyme SEQ ID No. 5
[10] = substrate HPP varied 10-400 μM, enzyme SEQ ID No. 5

Sequence of Kordia algicida HPPD "SEQ ID No. 5" (A9DQF2 entry or part of it): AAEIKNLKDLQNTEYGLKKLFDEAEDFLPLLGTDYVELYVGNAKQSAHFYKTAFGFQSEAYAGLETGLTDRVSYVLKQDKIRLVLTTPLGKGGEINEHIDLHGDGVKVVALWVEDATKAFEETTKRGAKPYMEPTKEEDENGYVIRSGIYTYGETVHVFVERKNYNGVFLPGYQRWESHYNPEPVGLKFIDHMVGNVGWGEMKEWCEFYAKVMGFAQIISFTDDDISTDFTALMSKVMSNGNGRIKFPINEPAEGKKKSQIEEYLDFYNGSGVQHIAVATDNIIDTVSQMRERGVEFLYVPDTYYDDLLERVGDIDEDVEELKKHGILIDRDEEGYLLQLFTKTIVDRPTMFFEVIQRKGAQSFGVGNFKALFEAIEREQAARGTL
Sequence of Kordia algicida HPPD "SEQ ID No. 5" (FMP27e) (A9DQF2 entry or part of it): as above

SMILES: O=C(O)CNCP(=O)(O)O [Glyphosate]
- Class I, number of plants (no injuries) ([1]; 1121 g AI/ha, line 639): 9
- Class II, number of plants (injury: 10-40%) ([1]; 1121 g AI/ha, line 639): 0
- Class III, number of plants (injury: 41-100%) ([1]; 1121 g AI/ha, line 639): 1
- Class I, number of plants (no injuries) ([1]; 1121 g AI/ha, line 714): 10
- Class II, number of plants (injury: 10-40%) ([1]; 1121 g AI/ha, line 714): 0
- Class III, number of plants (injury: 41-100%) ([1]; 1121 g AI/ha, line 714): 0
- Class I, number of plants (no injuries) ([1]; 1121 g AI/ha, line 717): 10
- Class II, number of plants (injury: 10-40%) ([1]; 1121 g AI/ha, line 717): 0
- Class III, number of plants (injury: 41-100%) ([1]; 1121 g AI/ha, line 717): 0

- inhibition at 5 µM [2, 9]: 97%
- IC50 ([2]; read-out: pI50 (converted)): < 2.51 µM
SMILES: Cc1ccc(C(=O)COc2c(C(=O)c3ccc(Cl)c(C)c3Cl)c(C)nn2C)cc1 [Benzofenap]

SMILES: O=C(O)C(=O)Cc1ccc(O)cc1 [HPP, para-hydroxyphenylpyruvate]
- Km [3, 10]: 292 µM
- Vmax [3, 10]: 13.6 µM
- Km [4]: 6.3 µM
- Vmax [4]: 1.2 µM

SMILES: Cc1nn(C)c(O)c1C(=O)c1ccc(C(F)(F)F)cc1S(C)(=O)=O [Pyrasulfotole]
- IC50 [5]: 3.98 µM
- inhibition at 5 µM ([5]; read-out: percentage of inhibition compared to the activity in absence of the inhibitor): 69%
- IC50 [2]: 12.6 µM
- inhibition at 5 µM [2]: 43%

SMILES: CS(=O)(=O)c1ccc(C(=O)C2C(=O)CCCC2=O)c([N+](=O)[O-])c1 [Mesotrione, 2-[4-(methylsulfonyl)-2-nitrobenzoyl]-1,3-cyclohexanedione]
- level of leaf disk regeneration ([6]; inhibitor 10^−6 M): −
- level of leaf disk regeneration ([7]; inhibitor 10^−6 M): +

SMILES: CP(=O)(O)CCC(N)C(=O)O (centres unmarked) [Glufosinate-ammonium]
- Class I, number of plants (no injuries) ([1]; 1000 g AI/ha, line 639): 10
- Class II, number of plants (injury: 10-40%) ([1]; 1000 g AI/ha, line 639): 0
- Class III, number of plants (injury: 41-100%) ([1]; 1000 g AI/ha, line 639): 0
- Class I, number of plants (no injuries) ([1]; 1000 g AI/ha, line 714): 10
- Class II, number of plants (injury: 10-40%) ([1]; 1000 g AI/ha, line 714): 0
- Class III, number of plants (injury: 41-100%) ([1]; 1000 g AI/ha, line 714): 0
- Class I, number of plants (no injuries) ([1]; 1000 g AI/ha, line 717): 10
- Class II, number of plants (injury: 10-40%) ([1]; 1000 g AI/ha, line 717): 0
- Class III, number of plants (injury: 41-100%) ([1]; 1000 g AI/ha, line 717): 0

SMILES: COCCOCc1nc(C(F)(F)F)ccc1C(=O)C1=C(O)C2CCC(C2)C1=O (centres unmarked) [Bicyclopyrone, 4-hydroxy-3-[[2-[(2-methoxyethoxy)methyl]-6-(trifluoromethyl)-3-pyridinyl]carbonyl]bicyclo[3.2.1]oct-3-en-2-one]
- % of tolerant plant ([8]; line 121): 39%
- Class I, number of plants (injury: 0-30%) ([8]; line 121): 90
- Class II, number of plants (injury: 31-100%) ([8]; line 121): 138
- % of tolerant plant ([8]; line 129): 30%
- Class I, number of plants (injury: 0-30%) ([8]; line 129): 47
- Class II, number of plants (injury: 31-100%) ([8]; line 129): 111
- % of tolerant plant ([8]; line 218): 64%
- Class I, number of plants (injury: 0-30%) ([8]; line 218): 100
- Class II, number of plants (injury: 31-100%) ([8]; line 218): 56
- % of tolerant plant (wild type tobacco plants): 0%
- Class I, number of plants (injury: 0-30%) (wild type tobacco plants): 0
- Class II, number of plants (injury: 31-100%) (wild type tobacco plants): 12
- level of leaf disk regeneration ([6]; inhibitor 10^−6 M): −
- level of leaf disk regeneration ([7]; inhibitor 10^−6 M): ++
- IC50 ([2]; read-out: pI50 (converted)): 10 µM
- inhibition at 5 µM [2]: 38%

- inhibition at 5 µM [2, 9]: 73%
- IC50 ([2]; read-out: pI50 (converted)): 1.58 µM
SMILES: CS(=O)(=O)c1ccc(C(=O)C2C(=O)CCCC2=O)c(Cl)c1COCC1CCCO1 (centres unmarked) [Tefuryltrione, 2-[2-chloro-4-(methylsulfonyl)-3-[[(tetrahydro-2-furanyl)methoxy]methyl]benzoyl]-1,3-cyclohexanedione]

- Ki ([3]; read-out: Ki): 15 µM
- inhibition at 5 µM [2, 9]: 80%
- IC50 ([2]; read-out: pI50 (converted)): 2 µM
SMILES: CS(=O)(=O)c1cc(C(F)(F)F)ccc1C(=O)C(C#N)C(=O)C1CC1 (centres unmarked) [Diketonitrile, 2-cyano-3-cyclopropyl-1-(2-methylsulphonyl-4-trifluoromethylphenyl)-propane-1,3-dione]
- level of leaf disk regeneration ([6]; diketonitrile 5.10^−6 M): −
- level of leaf disk regeneration ([7]; diketonitrile 5.10^−6 M): +
